We go through 8 compounds from US10647680B2, “Urea compound, preparation method therefor and medical use thereof” (Ancureall Pharmaceutical (Shanghai) Co., Ltd., priority 2016, dated 2020).

One test relates to U937 (FLT3 wild-type). As to the kind of experiment: In vitro growth inhibition (GI50), U937. The test is classed as cell-based. As to conditions: Homo sapiens, U-937; Cell lines of leukemia; read-out: GI 50 U937 FLT 3(WT). The text has this:
(§1) 1. Cell Lines and Cell Cultures
(§2) Tumor cell line is an effective cell model for studying the inhibition of tumor cell growth or proliferation in vitro. In the present invention, a representative tumor cell line was selected to determine the cell growth inhibition activity of the present compound. All cell lines used were from ATCC, DSMZ, and the Cell Bank of the Chinese Academy of Sciences. Cell culture conditions and methods were in accordance with the requirements of each cell line. Cells were subcultured in vitro for no more than 3 passages each time, and as required, single-clone purification and identification of cell lines could be carried out.
(§3) The cell culture media used were RPMI1640 (Gibco), MEM (Gibco), McCOY'S5A (Gibco), and IMDM (Gibco). The complete medium was prepared by supplement with 5˜20% fetal calf serum (Gibco), 1% double-antibiotics (10000 units/mL penicillin and 10000 units/mL), 2 mM glutamine or 1 mM sodium pyruvate, respectively.
(§4) The human acute […] monomonocyte leukemia cell line MV4-11 (FLT3 ITD+/+ mutant type, ATCC) was cultured in a complete medium comprising 1×IMDM and 10% FBS. Human acute myeloid leukemia cell line MOLM-13 (FLT3 ITD+/− mutant type, DSMZ), human acute lymphoblastic leukemia cell line RS4; 11 (FLT3 wild type, ATCC), human chronic granulocytic leukemia cell line K562 (FLT3 negative expression, positive expression of BCR-ABL fusion protein, ATCC), human promyelocytic leukemia cell line HL-60 (FLT3 wild type, ATCC), human B lymphoblastic leukemia cell line RAMOS (positive expression of Brutons tyrosine protein kinase, ATCC), human acute myeloid leukemia cell line Kasumi-1 (c-Kit N822K mutant type, ATCC), human acute monocytic leukemia cell line U937 (FLT3 wild-type, ATCC), human acute myeloid leukemia cell line OCI-AML3 (NPMc+ mutant type, ATCC), human acute myeloid leukemia cell line KG-1 (expressing FGFR1OP2-FGFR1 fusion protein, ATCC) were cultured in a complete medium comprising 1×RPMI1640 and 10% FBS, respectively.
(§5) The suspension cells were collected by centrifugation. The supernatant was discarded and the cell pellet was resuspended and counted. Different cell concentrations (5˜10×10^4 cells/mL) were prepared according to the growth cycle of each cell line and then seeded on a 96-well plate (Corning), 100 μL/well. The cells were incubated overnight at 37° C., 5% CO2. The compounds were added to the cells on the second day with 2 wells in parallel. The final concentration of organic solvent shall not exceed 1%. The cells were continually incubated for 3 to 5 days, and then subjected to MTT assay.
(§6) The compound was stored in a concentration of 10 mM at −20° C. and diluted to 2- or 10-fold series prior to use.
(§7) Dojindo CCK8 reagent kit was used as MTT assay. […] FC meter was used as microplate reader.
(§8) For adherent cells, culture medium was removed and immediately replaced with the fresh prepared medium which contains 10% CCK8 reagent (100 μL/well). For the suspension cells, CCK8 was directly added to 10% of the final concentration. The cells were continually incubated for 1˜4 h. […] The experiment was independently repeated 1˜3 times, and subject to biological statistical analysis. 4. Experimental Results
(§9) The initial concentration of the compound was 5,000 nM, then it was serially diluted by 2-fold or 10-fold to 0.01 nM. The GI50 value of each test compound was calculated according to the GI50 assay and calculation method. The experiments were repeated 1 to 3 times, and data were subjected to biological statistical analysis.

Test [1] concerns MOLM-13 (FLT3 ITD+/− mutant type). As to the kind of experiment: In vitro growth inhibition (GI50), MOLM-13. Particulars: Homo sapiens, MOLM-13; Cell lines of leukemia; read-out: GI 50 MOLM-13 FLT3 (ITD+/−). The test is classed as cell-based, human.
Source text: as §1, §2, §3, §4, §5, §6, §7, §8, §9

Test [2] relates to MV4-11 (FLT3 ITD+/+ mutant type). The test is described as follows: In vitro growth inhibition (GI50), MV4-11. The test is classed as cell-based, human. Particulars: Homo sapiens, MV4-11; Cell lines of leukemia; read-out: GI 50 MV4-11 FLT3 (ITD +/+).
Source text: as §1, §2, §3, §4, §5, §6, §7, §8, §9

In test [3] the test system is Kasumi-1 (c-Kit N822K mutant type). The test is described as follows: In vitro growth inhibition (GI50), Kasumi-1. The test is classed as cell-based. Particulars: Homo sapiens, Cell lines of leukemia, read-out: GI 50 Kasumi-1 Kit (N822K).
Source text: as §1, §2, §3, §4
as §5, with “Adherent cells were digested with 0.25% pancreatin-EDTA (Gibco). The suspension” for “The suspension”
(§10) The compound of the present invention and the control compound were dissolved in DMSO (Sigma) respectively, with the purity of more than 98%. The compound was stored in a concentration of 10 mM at −20° C. and diluted to 2- or 10-fold series prior to use.
(§11) Dojindo CCK8 reagent kit was used as MTT assay. THERMO […] FC meter was used as microplate reader.
(§12) For adherent cells, culture medium was removed and immediately replaced with the fresh prepared medium which contains 10% CCK8 reagent (100 μL/well). For the suspension cells, CCK8 was directly added to 10% of the final concentration. The cells were continually incubated for 1˜4 h. When a dark yellow color could be observed in the solvent control wells, the absorbance value at OD450 nm was measured and the cell growth rate was calculated according to the following formula: Cell Growth Rate (%)=100*(T−T0)/(C−T0) T=optical density of drug treatment cell well—optical density of blank control well; T0=optical density of cell well before drug treatment—optical density of blank control well; C=optical density of cell well of solvent control group—optical density of blank control well. The concentration value of 50% inhibition of cell growth (GI50) was calculated according to the drug concentration and cell growth rate curve. […]

The test system of test [4] is OCI-AML3 (NPMc+ mutant type). The test is described as follows: In vitro growth inhibition (GI50), OCI-AML3. The test is classed as cell-based. As to conditions: Homo sapiens, OCI-AML-3; Cell lines of leukemia; read-out: GI 50 OCI- AML3 NPMc+.
Source text: as §1, §2, §3, §4, §5, §6, §7, §8, §9

Another test relates to RS4; 11 (FLT3 wild type). The test is described as follows: In vitro growth inhibition (GI50), RS4; 11. As to conditions: Homo sapiens, RS4-11; Cell lines of leukemia; read-out: GI 50 RS4: 11 FLT3 (WT). The test is classed as cell-based, human.
Source text: as §1, §2, §3, §4, §5, §6, §7, §8, §9

A further test has as its system HL-60 (FLT3 wild type). As to the kind of experiment: In vitro growth inhibition (GI50), HL-60. The test is classed as cell-based. Particulars: Homo sapiens, Cell lines of leukemia, read-out: GI 50 HL60 FLT3 (WT).
Source text: as §1, §2, §3, §4
as §5, with “Adherent cells were digested with 0.25% pancreatin-EDTA (Gibco). The suspension” for “The suspension”
as §10, §11, §12

Test [5] deals with KG-1 (expressing FGFR1OP2-FGFR1 fusion protein). As to the kind of experiment: In vitro growth inhibition (GI50), KG-1. Particulars: Homo sapiens; Cell lines of leukemia; read-out: GI 50 KG-1 FGFR1OP 2-FGFR1. The test is classed as cell-based.
Source text: as §1, §2, §3, §4, §5, §6, §7, §8, §9

The test system of test [6] is K562 (FLT3 negative expression, positive expression of BCR-ABL fusion protein). As to the kind of experiment: In vitro growth inhibition (GI50), K562. As to conditions: Homo sapiens, Cell lines of leukemia, read-out: GI 50 K562 BCR-ABL. The test is classed as cell-based.
Source text: as §1, §2, §3, §4, §5, §6, §7, §8, §9

Test [7] concerns RAMOS (positive expression of Brutons tyrosine protein kinase). The test is described as follows: In vitro growth inhibition (GI50), RAMOS. The test is classed as cell-based. As to conditions: Homo sapiens, Cell lines of leukemia, read-out: GI 50 Ramos BTK.
Source text: as §1, §2, §3, §4, §5, §6, §7, §8, §9

Some results are limits rather than exact numbers.

Consider `CCOc1ccc2c(c1)ncn2-c1ccc(NC(=O)Nc2cc(C(C)(C)C)on2)cc1` [Compound 6, 1-(5-tert-butyl-isoxazol-3-yl)-3-[4-(5-ethoxyl-benzimidazol-1-yl)-phenyl]-urea], for which the GI50 in the test on U937 (FLT3 wild-type) is > 1000 nM; in test [1] it was 0.1 to 1 nM; in test [2], 0.1 to 1 nM; in test [3], > 1000 nM; in test [4] it was > 1000 nM; in the test on RS4; 11 (FLT3 wild type), > 1000 nM. Also, the GI50 (with HL-60 (FLT3 wild type); in [5]; in [6]; in test [7]) was > 1000 nM each time.

With `CCCCCCOc1ccc2c(c1)ncn2-c1ccc(NC(=O)Nc2cc(C(C)(C)C)on2)cc1` [Compound 7, 1-(5-tert-butyl-isoxazol-3-yl)-3-[4-(5-hexyloxyl-benzimidazol-1-yl)-phenyl]-urea], the GI50 is > 1000 nM with U937 (FLT3 wild-type); 0.1 to 1 nM in test [1]; 0.1 to 1 nM in test [2]; > 1000 nM in test [3]; > 1000 nM in test [4]; > 1000 nM in the test with RS4; 11 (FLT3 wild type). In addition, the GI50 (with HL-60 (FLT3 wild type); in test [5]; in [6]; in [7]) was > 1000 nM in each case.

With `CC(C)Oc1ccc2c(c1)ncn2-c1ccc(NC(=O)Nc2cc(C(C)(C)C)on2)cc1` [Compound 8, 1-(5-tert-butyl-isoxazol-3-yl)-3-[4-(5-isopropoxy-benzimidazol-1-yl)-phenyl]-urea], the GI50 was > 1000 nM with U937 (FLT3 wild-type); 0.1 to 1 nM in [1]; 0.1 to 1 nM in [2]; > 1000 nM in test [3]; > 1000 nM in [4]; > 1000 nM in the test on RS4; 11 (FLT3 wild type). For the same compound, the GI50 (in the test on HL-60 (FLT3 wild type); in test [5]; in test [6]; in [7]) was > 1000 nM each time.

Consider `CC1(COc2ccc3c(c2)ncn3-c2ccc(NC(=O)Nc3cc(C(C)(C)C)on3)cc2)COC1` [Compound 9, 1-(5-tert-butyl-isoxazol-3-yl)-3-{4-[5-(3-methyl-oxetan-3-ylmethoxy)-benzimidazol-1-yl]-phenyl]urea], for which the GI50 is > 1000 nM in the test on U937 (FLT3 wild-type); 0.1 to 1 nM in test [1]; 0.1 to 1 nM in test [2]; > 1000 nM in [3]; > 1000 nM in test [4]; > 1000 nM with RS4; 11 (FLT3 wild type). The GI50 (in the test on HL-60 (FLT3 wild type); in test [5]; in [6]; in [7]) was > 1000 nM each time.

As for `CC(C)(C)c1cc(NC(=O)Nc2ccc(-n3cnc4cc(OCC5CCCO5)ccc43)cc2)no1` (centres unmarked) [Compound 10, 1-(5-tert-butyl-isoxazol-3-yl)-3-{4-[5-(tetrahydrofuran-2-ylmethoxy)-benzimidazol-1-yl]-phenyl}-urea], the GI50 in the test on U937 (FLT3 wild-type) is > 1000 nM; in [1], 0.1 to 1 nM; in test [2], 0.1 to 1 nM; in test [3], > 1000 nM; in test [4] it was > 1000 nM; with RS4; 11 (FLT3 wild type), > 1000 nM. Besides, the GI50 (in the test on HL-60 (FLT3 wild type); in [5]; in test [6]; in test [7]) was > 1000 nM in each case.

In the case of `CCOCCOc1ccc2c(c1)ncn2-c1ccc(NC(=O)Nc2cc(C(C)(C)C)on2)cc1` [Compound 13, 1-(5-tert-butyl-isoxazol-3-yl)-3-{4-[5-(2-ethoxyl-ethoxyl)-benzimidazol-1-yl]-phenyl]-urea], the GI50 in the test with U937 (FLT3 wild-type) was > 1000 nM; in [1], 0.1 to 1 nM; in test [2], 0.1 to 1 nM; in [3], > 1000 nM; in test [4], > 1000 nM; with RS4; 11 (FLT3 wild type) it was > 1000 nM. Moreover, the GI50 (in the test on HL-60 (FLT3 wild type); in [5]; in test [6]; in test [7]) was > 1000 nM throughout.

In the case of `CC(C)(C)c1cc(NC(=O)Nc2ccc(-n3cnc4cc(OC(=O)N5CCOCC5)ccc43)cc2)no1` [Compound 15, 1-{4-[3-(5-tert-butyl-isoxazol-3-yl)-carbamido]-phenyl}-1H-benzimidazol-5-yl morpholin-4-carboxylate], the GI50 in the test with U937 (FLT3 wild-type) is > 1000 nM; in test [1], 0.1 to 1 nM; in [2], 0.1 to 1 nM; in [3] it was > 1000 nM; in [4], > 1000 nM; in the test with RS4; 11 (FLT3 wild type), > 1000 nM. The GI50 (with HL-60 (FLT3 wild type); in test [5]; in [6]; in test [7]) was > 1000 nM each time.

Regarding `CC(C)(C)c1cc(NC(=O)Nc2ccc(-n3cnc4cc(OCCN5CCCCC5)ccc43)cc2)no1` [Compound 17, 1-(5-tert-butyl-isoxazol-3-yl)-3-{4-[5-(2-piperidin-1-yl-ethoxyl)-benzimidazol-1-yl]-phenyl}-urea], the GI50 was 100 to 1000 nM with U937 (FLT3 wild-type); 0.1 to 1 nM in test [1]; 0.1 to 1 nM in test [2]; 100 to 1000 nM in test [3]; > 1000 nM in test [4]; 100 to 1000 nM with RS4; 11 (FLT3 wild type). In addition, the GI50 (in the test on HL-60 (FLT3 wild type); in test [5]; in test [6]; in test [7]) was 100 to 1000 nM each time.
